Measurements as given in US20260263429A1, “INHIBITORS OF CA 2+/CALMODULIN-DEPENDENT PROTEIN KINASE II (CAMKII) THAT DO NOT INHIBIT LONG-TERM POTENTIATION (LTP) INDUCTION AND THERAPEUTIC USES THEREOF” (The Regents of the University of Colorado, A Body Corporate, priority 2023, published 2026).
pKi: −log10 of the molar value. Like-named read-outs stand apart in the source and are kept apart here.

Tests used:
[1] = system: GFP-CaMKII synaptic enrichment (mCh-PSD95 intrabody); experiment: cLTP-induced CaMKII movement to excitatory synapses in dissociated rat hippocampal cultures; type: cell-based; details: 10 μM inhibitor; cLTP 100 μM glutamate, 10 μM glycine, 45 seconds
[2] = system: paCaMKII T286A movement to synapses and spine growth; experiment: Photoactivation of paCaMKII T286A in hippocampal neurons (structural LTP); type: cell-based; details: AS283 10 μM; AS397
Description: In this Example, two sets of pharmacogenetic tools were used in combination with the photoactivable paCaMKII to test whether structural CaMKII functions are not only the necessary but also the sufficient CaMKII functions in LTP. Specifically, in one exemplary method, hippocampal neurons were examined for sLTP (e.g., the LTP-associated growth of dendritic spines) in response to direct photoactivation of paCaMKII without any other stimulation that could trigger additional signaling pathways. […] In both cases, suppressing enzymatic CaMKII activity while allowing or enhancing GluN2B binding enabled induction of structural LTP. […]
paCaMKII stimulation in hippocampal neurons. […] Neurons were then imaged 15 minutes after stimulation and assessed for CaMKII synaptic enrichment and dendritic spine growth.
Image analysis of hippocampal neurons. […] 2D maximum intensity projection images were then generated and analyzed using a custom-build program in ImageJ. The program utilizes combinatorial thresholding to mask regions of the cell that contain high intensity PSD-95 puncta (the post-synaptic side of excitatory synapses in dendritic spines) and regions of the dendritic shaft that contain no fluorescence intensity of PSD-95. […] Spine growth was assessed by measuring the changes in mCherry cell fill fluorescence intensity within dendritic spine ROIs (F/F0).

purified CaMKIIα = purified CaMKIIα (Homo sapiens, UniProt Q9UQM7); experiment: In vitro kinase reactions with purified CaMKIIα (GluA1 S831, T286, GluN2B S1303 phosphorylation); type: biochemical; set-up: made in house; host or cells: baculovirus/Sf9 (CaMKIIα); BL21 bacteria (CaM); details: for pKi: 1 mM ATP, 30° C., AS283 0.41-10 μM, Cheng-Prusoff with Km ATP 33.3 μM
Procedure: In a series of exemplary methods, an in vitro kinase assay was used where purified CaMKIIα is incubated at 30° C. with GST-GluA1 alongside ATP. CaMKIIα normally phosphorylates S831 on the GluA1 subunit and this phosphorylation can be measured as a readout of CaMKIIα enzymatic activity (see e.g., FIG. 8B). […] In another exemplary method, binding of purified CaMKIIα to immobilized GST-GluN2B-c was induced by Ca^2+/CaM in the presence of a vehicle (none), 4 mM ADP or with […] AS105. […] At the same time, two exemplary methods were performed to observe ionomycin or chemical LTP (cLTP) induced co-localization of CaMKII and GluN2B either in HEK293 cells co-expressing GFP-CaMKII and mCherry-2BC or dissociated rat hippocampal cultures expressing GFP-CaMKII and mCh-PSD95 intrabody. HEK293 cells, incubating with vehicle or 10 μM AS105, were subjected to ionomycin. Hippocampal cultures, also incubating with either vehicle or 10 μM AS105, were treated with a chemical LTP (cLTP) stimulus (e.g., 100 μM glutamate, 10 μM glycine for 45 seconds). Confocal microscopy images were taken before and after each stimulus.
Therefore, in another exemplary method, the ability of AS283 to selective inhibit CAMKII enzymatic activity without interfering with its binding to GluN2B was tested. In a first method, in vitro kinase reactions were performed at 30° C. in 1 mM ATP measuring purified CaMKIIα phosphorylation of GST-GluA1 S831 with varying concentrations of AS283 (0.41-10 μM).
One possible mechanism by which AS283 could enhance GluN2B binding more than ATP is by suppressing CaMKII-mediated phosphorylation of GluN2B at S1303, as this phosphorylation within the CaMKII binding site on GluN2B reduces CaMKII binding.
(§1) In vitro phosphorylation assays. CaMKII-mediated phosphorylation of GluA1 S831 was measured by in vitro kinase reaction with purified GST-GluA1 c-terminal tail. Reactions contained 40 nM CaMKII (or water for negative controls), 1 μM GST-GluA1, 50 mM PIPES pH 7.1, 2 mM CaCl2), 10 mM MgCl2, 1 μM calmodulin, 1-4 mM ATP, and 1 PM of okadaic acid. Reactions were done at 30° C. for 20 s; reactions were stopped by adding SDS-loading buffer and incubation in a boiling water bath for 5 min. GST, phospho-S831, CaMKII, phospho-T286, or phospho-S1303 were detected in the samples by immunoblot analysis.
Km and Ki determination. The inhibition constant Ki was calculated using the Cheng-Prusoff equation for competitive inhibition: Ki=IC50/(1+[ATP]/Km).

CaMKII F89G = CaMKII F89G (Homo sapiens, UniProt Q9UQM7, F89G); experiment: In vitro kinase assay with CaMKII F89G mutant; type: biochemical; details: 10 μM NM-PP1
Procedure: This conclusion also predicts that the LTP stimulus-induced movement of CaMKII to excitatory synapses should be (i) impaired in the CaMKII F89G mutant; but (ii) normalized by pharmacogenetic rescue with NM-PP1. Indeed, both predictions were observed experimentally (FIGS. 4D-4E).
as §1

| SMILES | cLTP-induced CaMKII co-localization/movement to excitatory synapses in hippocampal neurons [1] | CaMKII movement to synapses after photoactivation of paCaMKII T286A [2] | spine growth (structural LTP) after photoactivation of paCaMKII T286A [2] | pKi (purified CaMKIIα; read-out: apparent Ki, autophosphorylation of T286 (pT286)) | pKi (purified CaMKIIα; read-out: apparent Ki, phosphorylation of GluA1 S831 (pS831)) | CaMKII-mediated S1303 phosphorylation of wild type GluN2B C-terminus (purified CaMKIIα; purified CaMKII and GST-2BC) | residual enzymatic activity of CaMKII F89G (CaMKII F89G) | effect on pT286 of CaMKII wildtype (purified CaMKIIα; in vitro kinase reaction in ATP) |
| --- | --- | --- | --- | --- | --- | --- | --- | --- |
| NCCNc1cccc(-c2ccnc3[nH]c4ccccc4c23)c1 [AS283] | failed to inhibit CaMKII binding to GluN2B | robust CaMKII movement | spine growth | 7.15 | 7.77 | inhibited the CaMKII-mediated S1303 phosphorylation |  |  |
| CC(C)(C)n1nc(Cc2cccc3ccccc23)c2c(N)ncnc21 [NM-PP1] |  |  |  |  |  |  | still further reduced | did not affect pT286 |
